Results published in US20100273714A1, “PEPTIDE COMPOUNDS FOR TREATING REFRACTORY STATUS EPILEPTICUS” (SCHWARZ PHARMA AG, priority 2006, published 2010).

How the values were obtained:
[1] = test system: self-sustaining status epilepticus (SSSE) in perforant path stimulated rats; settings: Mazarati et al. 1999, cited from earlier work; for effectiveness against SSSE, delayed administration (in words): administration delayed / later in status epilepticus; for effectiveness against SSSE, early administration (in words): given before or at onset of SSSE / within the first 10 min of status epilepticus
[2] = test system: status epilepticus in the rat lithium/pilocarpine model; assay: Lithium/pilocarpine model of status epilepticus; assay type: in vivo, Rats
[3] = test system: self-sustaining status epilepticus (SSSE) in perforant path stimulated rats; assay: Perforant path stimulation model of self-sustaining status epilepticus (acute seizure activity); assay type: in vivo, Male Wistar rats
Protocol: Male Wistar rats were implanted with a stimulating electrode into the angular bundle of the perforant path and a recording electrode into the granule cell layer of the dentate gyrus. Perforant path stimulation (PPS) was delivered for 30 or 60 minutes with the following parameters: 10 s, 20 Hz trains of 1 ms, 30 V pulses delivered every minute together with continuous 2 Hz stimulation with the same parameters.
(§1) The following indices were used to quantify seizure activity: cumulative seizure time (duration of SSSE, subtracting interictal time) and the number of seizure episodes. In addition the number of spontaneous seizures was measured 6 months following induction of SSSE in order to assess status epilepticus induced epileptogenesis.

[4] = test system: status epilepticus induced epileptogenesis (spontaneous recurrent seizures) in perforant path stimulated rats; assay: Long term (disease-modifying) effects: spontaneous recurrent seizures at least 6 months after SSSE induction, EEG/video monitoring; assay type: in vivo; settings: for spike frequency: early treatment, controls 9534±1114; for number of spontaneous recurrent seizures (SRSs) per week: treatment 10 min after perforant path stimulation, vehicle 110±8; for number of seizures per week: not statistically significant
Protocol: as §1
SSSE was induced in rats as described in Example 1. After SSSE induction, and at least 6 months wait (“silent period”) the animals were placed in EEG/telemetry/videotape continuously for two weeks for chronic EEG and video monitoring, but the second week, which was more remote from anaesthesia and surgery, was used to calculate seizure frequency (24 hours/day×7). Electrographic seizures were captured by the Harmony software, and were confirmed by offline manual review of the EEG and videotapes. The following indices were counted: total number of spikes of seizures for 7 days of observation, mean seizure duration, light/dark distribution.

[5] = 50 mg/kg i.p., treatment initiated 40 minutes after PPS, FIG. 1
[6] = 50 mg/kg, administered 40 min after onset of SSSE
[7] = given 10 min after perforant path stimulation, doses 10 mg/kg and above

O=C1NC(=O)C(c2ccccc2)(c2ccccc2)N1 [phenytoin]
effectiveness against SSSE, delayed administration (in words) [1]: lost their effectiveness
effectiveness against SSSE, early administration (in words) [1]: highly effective

CN1C(=O)CN=C(c2ccccc2)c2cc(Cl)ccc21 [diazepam]
efficacy of diazepam alone (in words) ([2]; administered 15 min after onset of status epilepticus): ineffective
effectiveness against SSSE, delayed administration (in words) [1]: lost their effectiveness
effectiveness against SSSE, early administration (in words) [1]: highly effective

COC[C@@H](NC(C)=O)C(=O)NCc1ccccc1 [lacosamide, (R)-2-acetamido-N-benzyl-3-methoxypropionamide]
cumulative seizure duration (in words) [3, 5]: substantial reduction
seizure frequency (in words) [3, 5]: substantial reduction
reduction in cumulative seizure duration [3, 6]: 40%
reduction in seizure frequency [3, 6]: 40%
anticonvulsant effect (in words) ([3]; given 10 min after perforant path stimulation): effective as an anticonvulsant
cumulative time spent seizing after treatment (in words) [3, 7]: reduced
number of seizures (in words) [3, 7]: reduced the number of seizures
number of seizures (in words) ([3]; late treatment, 40 min after perforant path stimulation): non-significant reduction
motor seizure symptoms (in words) ([2]; 50 mg/kg, 10 minutes after onset of status epilepticus): reduced motor seizure symptoms
spike frequency ([4]; 3 mg/kg group): 7557±1945 spikes/week
number of spontaneous recurrent seizures (SRSs) per week ([4]; 3 mg/kg): 85±5 SRS/week
number of spontaneous recurrent seizures (SRSs) per week ([4]; 10 mg/kg): 66±8 SRS/week
number of seizures per week ([4]; 10 mg/kg, treatment 40 min after perforant path stimulation, control 110±8): 100±7 seizures per week
spike frequency ([4]; 30 mg/kg group): 2969±542 spikes/week
median number of seizures ([4]; 30 mg/kg group, treatment 40 min after perforant path stimulation): 0
number of spontaneous recurrent seizures (SRSs) per week ([4]; 30 mg/kg): 42±8 SRS/week
number of seizures per week ([4]; 30 mg/kg, treatment 40 min after perforant path stimulation, control 110±8): 67±67 seizures per week
spike frequency ([4]; 50 mg/kg group): 2588±370 spikes/week
median number of seizures ([4]; 50 mg/kg group, treatment 40 min after perforant path stimulation): 0
number of spontaneous recurrent seizures (SRSs) per week ([4]; 50 mg/kg): 34±6 SRS/week
number of seizures per week ([4]; 50 mg/kg, treatment 40 min after perforant path stimulation, control 110±8): 45±29 seizures per week
percentage of rats developing chronic epilepsy / spontaneous recurrent seizures ([4]; 30-50 mg/kg, 6 months after induction of SSSE, vehicle 100%): 30%
reduction of number of seizures per week (seizure frequency) ([4]; 30-50 mg/kg, after six months, vehicle average 110 seizures per week): 60%
spike frequency ([4]; "mg/kg" group (dose not given)): 3536±380 spikes/week
number of animals showing spontaneous recurrent seizures ([4]; treatment 40 min after perforant path stimulation, two higher dosage groups combined, control 6/6, p<0.05): 3/9
seizure numbers per week ([4]; treatment 40 min after perforant path stimulation, two highest treatment groups combined, control 110±8): 55±32 seizures per week
